Assay results taken from US9987302B2, “Methods of treating DNA damage” (priority 2011, dated 2018).

How the values were obtained:
U2OS-SCR reporter cells = experiment: HR/SCR reporter assay (GFP-positive cells by flow cytometry and fluorescence microscopy); format: cell-based; details: for number of GFP-positive cells (HR repair of DSB): U2OS-SCR cells transfected with SceI 24 hours, then treated 24 hours, CO 250 ppm; for CO-mediated HR (GFP-positive cells) under ATM/ATR blockade: inhibitor 20 μM 1 hour prior to CO 250 ppm for 24 hours
Description: To test this, the U20S cell line containing the HR/SCR (homologous recombination/sister chromatid recombination) reporter was used as previously described (12,13). I-SceI endonuclease was used to introduce a double strand break (DSB) within the reporter in U2OS cells. The efficiency of homologous recombination induced by I-SceI correlated with generation of wild type GFP by gene conversion.
(§1) Many of the effects observed with HO-1 are mediated by one or more of its enzymatic products biliverdin or CO. Therefore, the role of biliverdin and CO was tested separately in HR during DSB and DNA repair. U2OS-SCR reporter cells after transfection with SceI for 24 hours were treated with CO 250 (ppm) for 24 hours. […] No effects of CO were observed on NHEJ-mediated DNA repair as measured by number of XHATM-resistant colonies.
(§2) Lysates of PC3 and HEK cells were treated with CO (250 ppm) for 2′ to 1 h. […] Therefore, the two major DNA repair kinases, ATM and ATR, were examined to see if they are implicated in accelerated HR in the presence of CO or HO-1. […] U20S-SCR reporter cells were transfected with SceI for 24 hours and treated with CGK733 (20 μM) or DMSO for 1 hour prior treatment with CO (250 ppm) for 24 hours. U20S-SCR reporter cells were co-transfected with SceI for 24 hours and KU55933 (20 μM) or DMSO for 1 hour prior treatment with CO (250 ppm) was applied for following 24 hours. […] U20S-SCR reporter cells were co-transfected with SceI and HO-1 for 24 hours and CGK733 was applied for following 24 hours.
(§3) U203 HR/SCR cells were maintained in the DMEM medium (Gibco, Invitrogen) containing 10% FBS and antibiotics. pPHW1 cells (NHEJ model) were maintained in the DMEM medium with 10% FBS and antibiotics. Mouse kidney fibroblasts were obtained from adult Hmox1^−/− and Hmox1^+/+ mice and culture between passages 4-7 in DMEM medium supplemented with 10% FBS and antibiotics. HEK293 were purchased from ATCC and were cultured following manufacturer's protocol. For CO in vitro studies, cells were exposed to 250 ppm CO, 5% CO2 in […] for 2 minutes to 24 hours. Cells were irradiated with 10 Gy and harvested at different time points after single exposure.
HR/SCR reporter U20S cells were used as previously described. Briefly, GFP+ cells were analyzed 2 days postransfection by flow cytometry (FACScan, BD Biosciences) and fluorescence microscopy. Images of GFP-positive cells were captured of randomized fields using a Zeiss Apotome fluorescent microscope.

irradiated mice = experiment: Radiation-induced model of DNA damage (lethal irradiation, 10 Gy); format: in vivo
Method: To support the observations with chemical genotoxins, a radiation-induced model of DNA damage was also used. Endogenous HO-1 is induced early in response to IR or doxorubicin and its expression is sustained for 24-72 hours in the spleen, liver and kidney (FIGS. 7A-B). Kidneys and spleen were harvested after 2 hours after irradiation. To evaluate the role of exogenous CO, mice were pretreated with CO for 1 hour prior to either a lethal or sublethal dose of irradiation and then daily for 1 hour. Spleens and intestines of mice were pretreated with Air or CO (250 ppm) 1 hour prior lethal dose of irradiation (10 Gy) and treated daily with CO for 11 days. […] Tissues were harvested 2 hours after irradiation. To evaluate the role of H2AX signaling in CO effects on DNA repair, marginal bone marrow transplantation of BM cells from H2ax^−/− and H2ax^+/+ mice into wild type irradiated recipients was used. Mice were treated with CO prior lethal dose of irradiation (10 Gy) and thereafter after receiving BM.
Male C57BL/6 mice 7-9 weeks of age were purchased from Jackson Laboratories (Bar Harbor, Me.). Mice were held under SPF conditions and the experiments were approved by the IACUC at BIDMC. Mice were irradiated with 10 Gy (lethal dose) or 5 Gy (sublethal dose) and the protocol was approved by Radiation Safety Officer at BIDMC and the IACUC. Mice were exposed in plexiglass chamber to CO for 1 hour, 250 ppm prior irradiation and thereafter every day for 1 hour.
Mice were lethally irradiated and transplanted with […] i.v. immediately after irradiation. The amount of injected BM was sufficient for recovery of 40% mice.

[1] = system: lung and intestine gene expression; experiment: Gene expression in tissues of mice exposed to inhaled CO (real time PCR); format: in vivo
Method: This is important given that the lung has such a high rate of cellular turnover. The increase in expression of these genes is associated with decreased senescence and extension of life span.
Male C57Bl/6 mice were exposed to inhaled carbon monoxide at 250 parts per million (ppm) for 1 hour. […] Real time PCR for telomerase in lungs, and topoisomerase (responsible for unwinding of DNA) and p16 (cell cycle suppressor) in intestines was performed, and expression was compared to air-exposed controls (FIG. 10). Results represent mean±SD of at least 3 mice/group, * p<0.05.

HEK cells = experiment: Immunoblot of DNA repair signaling after CO exposure; format: cell-based; details: CO 250 ppm, 2 minutes to 1 h
Method: as §2, §3

pPHW1 cells (NHEJ model) = experiment: NHEJ-mediated DNA repair (number of XHATM-resistant colonies); format: cell-based
Method: as §1, §3

H2AXγ foci in tissues = experiment: DNA damage (H2AXγ foci) in tissues of nude mice with PC3 tumors treated with doxorubicin ± CO; format: in vivo
Method: Based on the effects observed in vitro, the salutary effects of CO were tested in an in vivo model of DNA damage in mice. Tissues were harvested 14 days after treatment of nude mice with established PC3 tumors (2 weeks) with […] (Control) or doxorubicin (8 mg/kg, twice per week, i.v.)±CO (daily, 1 hour, 250 ppm). Doxorubicin was employed to induce DNA damage in the tissues during chemotherapeutic treatment of tumor xenografts in nude mice.
Nu/nu mice were purchased from Taconic (Hudson, N.Y.) at 7 weeks of age. Those mice were used in a complementary experiment of a subcutaneous tumor model of PC3 cells injected into the right flank of mice. Doxorubicin (8 mg/kg, Sigma) was given i.v. twice per week and mice were exposed to CO daily (250 ppm for 1 hour). Tissues were harvested after 2 weeks of treatment.

[2] = system: fibroblasts from Hmox1+/+ and Hmox1−/− mice; experiment: H2AX phosphorylation / γ-H2AX foci in mouse fibroblasts treated with genotoxins; format: cell-based; details: doxorubicin 10 μg/ml, camptothecin 1 μg/ml; for phosphorylation of histone H2AX and γ-H2AX foci: Hmox+/+ fibroblasts
Method: Representative pictures are shown from at least two independent experiments in duplicates. Fibroblasts were treated with doxorubicin (10 μg/ml) for 2-4 hr.
as §3

HEK293 cells = experiment: Western blot of DNA repair signaling in HEK293 cells treated with genotoxins; format: cell-based; details: 2 min to 2 h
Method: The direct effects of HO-1 was tested on signaling pathways in response to the DNA damaging agents, doxorubicin, camptothecin, or irradiation in loss and gain of function studies with HO-1. HEK293cells express high basal levels of HO-1 due to presence of large T antigen. HEK293 cells were transduced with micro-adapted shRNA to stably deplete HO-1 and then exposed to camptothecin, doxorubicin or irradiation. HEK293 cells with stable knockdown of HO-1 (mirHO-1) and control cells were treated with camptothecin (1 μg/ml) for 2′-2 h. The levels of HO-1 and DNA repair signaling proteins activation was measured by Western blot.
The status of the major DNA repair kinases, ATR, and ATM and their downstream targets was evaluated in HEK293 cells treated with camptothecin.
HEK mirHO-1 and control cells treated with doxorubicin (10 μg/ml) for 2′-2 h is shown. […] Akt is a loading control for the immunoblot for P-p53.

[3] = CO 250 ppm 1 hour, harvested immediately, versus air
[4] = CO 1 hour, harvested at 24 hours

## C=CC1=C(C)/C(=C/C2=NC(=C\c3[nH]c(/C=C4\NC(=O)C(C)=C4C=C)c(C)c3CCC(=O)O)/C(CCC(=O)O)=C2C)NC1=O [Biliverdin, biliverdin]
U2OS-SCR reporter cells
  number of GFP-positive cells (HR repair of DSB): no effect

## O=C(NC(NC(=S)Nc1ccc(F)c([N+](=O)[O-])c1)C(Cl)(Cl)Cl)C(c1ccccc1)c1ccccc1 (centres unmarked) [CGK733]
U2OS-SCR reporter cells; co-transfected with SceI and HO-1 for 24 hours, inhibitor applied following 24 hours
  HO-1-induced HR (GFP-positive cells) in presence of inhibitor: did not increase HR
U2OS-SCR reporter cells
  CO-mediated HR (GFP-positive cells) under ATM/ATR blockade: significantly decreased

## [C-]#[O+] [CO, carbon monoxide]
Irradiated mice; CO 250 ppm 1 hour prior to 10 Gy, then daily for 11 days
  sustained H2AXγ foci formation in spleen and intestine: significant inhibition
Irradiated mice; CO 1 hour prior to irradiation, tissues harvested 2 hours after irradiation, versus air
  P-p53, P-Brca1, P-ATM and early P-H2AX in peripheral blood mononuclear cells and bone marrow: strong induction
Irradiated mice; lethal irradiation, CO 250 ppm 1 hour prior and daily, n=6/group, p=0.031 versus air (50%)
  survival rate, mice alive >10 days: 80%
Irradiated mice; marginal bone marrow transplantation into wild type recipients irradiated with 10 Gy
  CO-mediated protection against irradiation-induced death with H2ax−/− donor BM: reversed
[1]; [3]
  expression of p16 in intestines: increases expression
  expression of telomerase in lungs: increases expression
  expression of topoisomerase in intestines: increases expression
[1]; [4]
  expression of SIRT1 in the lung: increased expression
  expression of TERT in the lung: increased expression
HEK cells
  phosphorylation of Brca1, ATR and ATM: induced rapid phosphorylation
pPHW1 cells (NHEJ model)
  NHEJ-mediated DNA repair, number of XHATM-resistant colonies: No effects
U2OS-SCR reporter cells
  number of GFP-positive cells (HR repair of DSB): significantly increased
H2AXγ foci in tissues; CO daily, 1 hour, 250 ppm, with doxorubicin
  severity of doxorubicin-induced DNA damage (H2AXγ) in all organs: significantly decreased

## COc1cccc2c1C(=O)c1c(O)c3c(c(O)c1C2=O)C[C@@](O)(C(=O)CO)C[C@@H]3O[C@H]1C[C@H](N)[C@H](O)[C@H](C)O1 [Doxorubicin, doxorubicin]
[2]; Hmox1−/− fibroblasts
  γ-H2AX foci formation: no γ-H2AX foci formation
[2]
  phosphorylation of histone H2AX and γ-H2AX foci: strong increase
HEK293 cells; HEK293 cells, doxorubicin 10 μg/ml
  phosphorylation of ATM, p53 and H2AX: increase
H2AXγ foci in tissues; doxorubicin 8 mg/kg i.v. twice per week, 14 days, lung, liver, kidney and colon
  DNA damage by accumulation of H2AXγ foci: substantial DNA damage

## O=c1cc(-c2cccc3c2Sc2ccccc2S3)oc(N2CCOCC2)c1 [KU55933]
U2OS-SCR reporter cells
  CO-mediated HR (GFP-positive cells) under ATM/ATR blockade: significantly decreased

## CC[C@@]1(O)C(=O)OCc2c1cc1n(c2=O)Cc2cc3ccccc3nc2-1 [camptothecin]
[2]
  phosphorylation of histone H2AX and γ-H2AX foci: strong increase
HEK293 cells; wild-type HEK293 cells, camptothecin 1 μg/ml
  phosphorylation of H2AX: induced phosphorylation
